Source: patent publication US9499550B2 (BRISTOL-MYERS SQUIBB COMPANY, priority 2012, dated 2016)
Like-named read-outs stand apart in the source and are kept apart here.

What was measured:
[1] = tested on: HCV genotype 1a (H77 strain) replicon in HUH-7 cells; experiment: HCV replicon luciferase reporter assay, genotype 1a; type: cell-based; conditions: Hepatitis C virus, Huh-7, 72 h, HCV genotype 1a replicon luciferase, 3 days incubation
How it was run: (§1)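 Replicon inhibition for both genotypes was measured as Renilla luciferase signal (EnduRen, 7.5 μM final, 2 h) after 3-day, 37° C exposure of replicon-bearing HUH-7 cells in 4% FCS DMEM, 0.5% DMSO. The 1b construct carries S1179I; the 1a H77 construct carries P1496L and S2204I. Twenty-point, 3-fold dilutions were fitted four-parametrically for EC50, and CC50 was taken from multiplexed Cell Titer-Blue.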

[2] = tested on: HCV genotype 1b (Con1) replicon in HUH-7 cells; experiment: HCV replicon luciferase reporter assay, genotype 1b; type: cell-based; conditions: Hepatitis C virus, Huh-7, 72 h, HCV genotype 1b replicon luciferase, 3 days incubation
How it was run: as §1

[3] = GETYPE1A, read-out: LE_1a (EC50, range)
[4] = GETYPE1B, read-out: LE_1b (EC50, range)

SMILES	EC50 ([1]; read-out: LE_1a (EC50, range)) [nM]	EC50 ([2]; read-out: LE_1b (EC50, range)) [nM]	EC50 [1, 3] [nM]	EC50 [2, 4] [nM]	EC50 ([1]; GETYPE1A, read-out: LE_1a (EC50)) [nM]	EC50 ([2]; GETYPE1B, read-out: LE_1b (EC50)) [nM]
COc1ccc2c(Cl)cc(O[C@@H]3C[C@H]4C(=O)N[C@]5(C(=O)NS(=O)(=O)C6(C)CC6)C[C@H]5/C=C\CC[C@@H](C)C[C@@H](C)[C@H](NC(=O)OC(C)(C)C)C(=O)N4C3)nc2c1 [Compound 4300, tert-butyl ((2R,6S,7R,9R,13aS,14aR,16aS,Z)-2-((4-chloro-7-methoxyquinolin-2-yl)oxy)-7,9-dimethyl-14a-(((1-methylcyclopropyl)sulfonyl)carbamoyl)-5,16-dioxo-1,2,3,5,6,7,8,9,10,11,13a,14,14a,15,16,16a-hexadecahydrocyclopropa[e]pyrrolo[1,2-a][1,4]diazacyclopentadecin-6-yl)carbamate]	0.51 to 1	0.51 to 1	–	–	–	–
COc1ccc2c(Cl)cc(O[C@@H]3C[C@H]4C(=O)N[C@]5(C(=O)NS(=O)(=O)C6(C)CC6)C[C@H]5/C=C\CC[C@@H](C)C[C@@H](C)[C@H](NC(=O)OC(C)(C)C(F)(F)F)C(=O)N4C3)nc2c1 [Compound 4302]	–	–	1.01 to 5	1.01 to 5	–	–
CC[C@@H]1C[C@H](C)CC/C=C\[C@@H]2C[C@@]2(C(=O)NS(=O)(=O)C2CC2)NC(=O)[C@@H]2C[C@@H](Oc3nc4ccc(OC)cc4nc3N(C)C)CN2C(=O)[C@H]1NC(=O)OC(C)(C)C [Compound 4304, tert-butyl ((2R,6S,7R,9R,13aS,14aR,16aS,Z)-14a-((cyclopropylsulfonyl)carbamoyl)-2-((3-(dimethylamino)-6-methoxyquinoxalin-2-yl)oxy)-7-ethyl-9-methyl-5,16-dioxo-1,2,3,5,6,7,8,9,10,11,13a,14,14a,15,16,16a-hexadecahydrocyclopropa[e]pyrrolo[1,2-a][1,4]diazacyclopentadecin-6-yl)carbamate]	35 to 620	5.01 to 35	–	–	–	–
CC[C@@H]1C[C@H](C)CC/C=C\[C@@H]2C[C@@]2(C(=O)NS(=O)(=O)C2CC2)NC(=O)[C@@H]2C[C@@H](Oc3nc4ccc(OC)cc4nc3N(C)C)CN2C(=O)C1NC(=O)OC(C)(C)C(F)(F)F (stereo partly drawn) [Compound 4305]	–	–	35 to 620	5.01 to 35	–	–
COc1cnc2ccc(O[C@@H]3C[C@H]4C(=O)N[C@]5(C(=O)NS(=O)(=O)C6(C)CC6)C[C@H]5/C=C\CC[C@@H](C)C[C@@H](C)[C@H](NC(=O)OC(C)(C)C)C(=O)N4C3)cc2n1 [Compound 4310, tert-butyl ((2R,6S,7R,9R,13aS,14aR,16aS,Z)-2-((3-methoxyquinoxalin-6-yl)oxy)-7,9-dimethyl-14a-(((1-methylcyclopropyl)sulfonyl)carbamoyl)-5,16-dioxo-1,2,3,5,6,7,8,9,10,11,13a,14,14a,15,16,16a-hexadecahydrocyclopropa[e]pyrrolo[1,2-a][1,4]diazacyclopentadecin-6-yl)carbamate]	0.51 to 1	1.01 to 5	–	–	–	–
CCOc1ccc2ncc(O[C@@H]3C[C@H]4C(=O)N[C@]5(C(=O)NS(=O)(=O)C6(C)CC6)C[C@H]5/C=C\CC[C@@H](C)C[C@@H](C)[C@H](NC(=O)OC(C)(C)C)C(=O)N4C3)cc2c1 [Compound 4311, tert-butyl ((2R,6S,7R,9R,13aS,14aR,16aS,Z)-2-((6-ethoxyquinolin-3-yl)oxy)-7,9-dimethyl-14a-(((1-methylcyclopropyl)sulfonyl)carbamoyl)-5,16-dioxo-1,2,3,5,6,7,8,9,10,11,13a,14,14a,15,16,16a-hexadecahydrocyclopropa[e]pyrrolo[1,2-a][1,4]diazacyclopentadecin-6-yl)carbamate]	1.01 to 5	1.01 to 5	–	–	–	–
CCOc1ccc2nc(Cl)c(O[C@@H]3C[C@H]4C(=O)N[C@]5(C(=O)NS(=O)(=O)C6(C)CC6)C[C@H]5/C=C\CC[C@@H](C)C[C@@H](C)[C@H](NC(=O)OC(C)(C)C(F)(F)F)C(=O)N4C3)c(Cl)c2c1 [Compound 4312]	–	–	5.01 to 35	5.01 to 35	20.9	12.2
CCOc1ccc2ncc(O[C@@H]3C[C@H]4C(=O)N[C@]5(C(=O)NS(=O)(=O)C6(C)CC6)C[C@H]5/C=C\CC[C@@H](C)C[C@@H](C)[C@H](NC(=O)OC(C)(C)C(F)(F)F)C(=O)N4C3)cc2c1 [Compound 4313]	–	–	0.51 to 1	0.1 to 0.5	–	–
